Where two headings read alike, the source gives them in different places.
Target: T1, cloned human dopamine D3 receptors (Homo sapiens, UniProt P35462)
T1 construct: expressed in transfected cells; membrane homogenate
Experiment: [N-Methyl-3H]Spiroperidol binding to cloned human dopamine D3 receptors (Protocol 1)
In short: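 Radioligand displacement with [N-methyl-3H]spiroperidol used a physiological-salt Tris buffer (0.05 M, pH 7.7; NaCl 120 mM, KCl 5 mM, CaCl2 2 mM, MgCl2 1 mM) and membranes of a high-expressing stable CHO clone carrying human D3. Total ligand concentration came from measured added CPM; 0.1% ascorbic acid was optional for oxidizable compounds.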

[1] = the 19th table, read-out: D3 Ki
[2] = the 18th table, read-out: D3 Ki
[3] = the 13th table, unit inferred, read-out: D3Ki
[4] = the 23rd table, read-out: D3 Ki
[5] = the 15th table, read-out: D3 Ki
[6] = the 21st table, read-out: D3 Ki
[7] = the 22nd table, read-out: D3 Ki

T1 sequence (P35462 whole entry): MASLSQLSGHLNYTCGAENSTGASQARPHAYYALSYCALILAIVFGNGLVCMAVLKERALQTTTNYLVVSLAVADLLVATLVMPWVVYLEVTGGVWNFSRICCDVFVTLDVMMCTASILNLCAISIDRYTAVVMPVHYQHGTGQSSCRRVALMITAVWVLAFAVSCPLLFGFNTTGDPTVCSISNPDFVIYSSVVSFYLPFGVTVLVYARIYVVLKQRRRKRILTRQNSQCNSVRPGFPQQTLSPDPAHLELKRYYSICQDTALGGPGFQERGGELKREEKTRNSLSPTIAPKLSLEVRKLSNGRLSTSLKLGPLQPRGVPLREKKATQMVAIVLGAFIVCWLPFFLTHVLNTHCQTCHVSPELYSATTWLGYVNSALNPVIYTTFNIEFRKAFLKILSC

SMILES: COc1cc(OC)cc(C(=O)Nc2cccc(CN3CCN(c4csc5cc(F)ccc45)CC3)c2)c1 [compound 822161]
- Ki [1]: 163 nM

SMILES: O=C(NCc1sccc1CN1CCN(c2csc3cc(F)ccc23)CC1)c1cccc2[nH]ccc12 [compound 826326]
- Ki [2]: 71 nM

SMILES: O=C(NCc1sccc1CN1CCN(c2csc3cc(F)ccc23)CC1)c1cccs1 [compound 826295]
- Ki [2]: 46 nM

SMILES: Cc1nn(C)c2sc(C(=O)NCCCCCN3CCCN(c4csc5cc(F)ccc45)CC3)cc12 [S984503]
- Ki [3]: 10.2 nM

SMILES: O=C(NCCCCN1CCCN(c2csc3cc(F)ccc23)CC1)c1cccc2[nH]ccc12 [S977823]
- Ki [3]: 3.96 nM

SMILES: COc1cc(OC)cc(C(=O)NCCCCN2CCCN(c3csc4cc(F)ccc34)CC2)c1 [compound 82251]
- Ki [3]: 10.9 nM

SMILES: CCC1CCC(NCC2CC2CN2CCN(c3cc(C)ccc3C)CC2)CC1 (stereo not shown) [compound 832265]
- Ki [4]: 72.8 nM

SMILES: COc1ccc(C(=O)NCc2ccccc2CN2CCN(c3csc4cc(F)ccc34)CC2)cc1OC [compound 822188]
- Ki [1]: 140 nM

SMILES: O=C(NCCCCN1C2CCC1CC(c1noc3ccccc13)C2)c1ccccc1C(F)(F)F (stereo not shown) [compound 816522]
- Ki [5]: 240 nM

SMILES: O=C(NCCCCN1CCCN(c2csc3cc(F)ccc23)CC1)c1cc2ccccc2o1 [S977819]
- Ki [3]: 3.21 nM

SMILES: O=C(NCCCCN1CCN(c2c(-c3ccccc3)sc3cc(F)ccc23)CC1)c1ccc(-c2ccccc2)cc1 [compound 815872]
- Ki (Table 2, read-out: D3K1): 567 nM

SMILES: C[C@@H]1CN(c2csc3cc(C(F)(F)F)ccc23)C[C@H](C)N1CCCCNC(=O)c1ccc(OC(F)(F)F)cc1 [compound 827040]
- Ki [6]: 165 nM

SMILES: O=C(NCCCCN1CCCN(c2csc3cc(F)ccc23)CC1)c1ccc(-c2ccccc2F)cc1 [S981842]
- Ki [3]: 2.2 nM

SMILES: O=C(NCC(CO)CCN1CCN(c2csc3cc(C(F)(F)F)ccc23)CC1)c1ccc2[nH]ccc2c1 (stereo not shown) [818931ES]
- Ki (Table 2, read-out: D3K1): 97.2 nM

SMILES: O=C(Nc1cccc(CN2CCN(c3csc4cc(F)ccc34)CC2)c1)c1ccncc1 [compound 822185]
- Ki [1]: 50.7 nM

SMILES: CC(C)(C)c1ccc(C(=O)NCCCCN2CCCN(c3csc4cc(C(F)(F)F)ccc34)CC2)cc1 [S980642]
- Ki [3]: 69 nM

SMILES: O=C(NCCCCN1C2CCC1CC(c1noc3cc(F)ccc13)C2)c1ccccc1C(F)(F)F (stereo not shown) [compound 816340]
- Ki [5]: 427 nM

SMILES: O=C(NCc1sccc1CN1CCN(c2csc3cc(F)ccc23)CC1)c1ccc2[nH]ccc2c1 [compound 826327]
- Ki [2]: 20 nM

SMILES: C[C@@H]1CN(c2csc3cc(F)ccc23)C[C@H](C)N1CCCCNC(=O)c1cccc2ccccc12 [compound 827050]
- Ki [6]: 186 nM

SMILES: O=C(NCCCCN1C2CCC1CC(c1noc3ccccc13)C2)c1cccc(F)c1F (stereo not shown) [compound 816540]
- Ki [5]: 225 nM

SMILES: COc1ccccc1C(=O)NCCCCN1CCN(c2c(Cl)sc3cc(C(F)(F)F)ccc23)CC1 [compound 815574]
- Ki (read-out: D3K1): 53 nM

SMILES: Cc1nc(Cl)c(Cl)n1CCCNCC1CC1CN1CCN(c2csc3cc(C(F)(F)F)ccc23)CC1 (racemic) [compound 832644]
- Ki [4]: 97.5 nM

SMILES: FC(F)(F)c1ccc2c(N3CCN(C[C@@H]4C[C@H]4CN4CCC(n5ccnc5)CC4)CC3)csc2c1 [compound 833349]
- Ki [4]: 22.9 nM

SMILES: CCN(CC)c1ccc2cc(C(=O)NCCCCN3CCCN(c4csc5cc(F)ccc45)CC3)oc2c1 [compound 827123]
- Ki (Table 2, read-out: D3K1): 107 nM
- Ki (the 16th table, read-out: D3 Ki): 107 nM

SMILES: O=C(NCCCCN1CCN(c2noc3ccsc23)CC1)c1cc(Cl)cc(Cl)c1 [compound 829678]
- Ki [7]: 275 nM

SMILES: COc1ccc(C(=O)NCCCCN2CCCN(c3csc4cc(F)ccc34)CC2)cc1 [S981845]
- Ki [3]: 1.01 nM

SMILES: CCCCc1ccc(C(=O)NCCCCCN2CCC(c3noc4ccsc34)CC2)cc1 [compound 816218]
- Ki [3]: 316 nM

SMILES: O=C(N[C@@H](CO)CCCN1CCN(c2csc3cc(C(F)(F)F)ccc23)CC1)c1ccc2[nH]ccc2c1 [compound 815676]
- Ki (Table 2, read-out: D3K1): 224 nM
- Ki (read-out: D3K1): 224 nM
- Ki (the 14th table, read-out: D3 Ki): 224 nM

SMILES: CC1(C)C(CNC(=O)c2cccc(F)c2)C1CN1CCN(c2csc3cc(C(F)(F)F)ccc23)CC1 (stereo not shown) [compound 826274]
- Ki (read-out: D3K1): 67 nM

SMILES: O=C(NCCCCN1CCN(c2n[nH]c3ccsc23)CC1)c1ccc(-c2ccccc2)cc1 [compound 825153]
- Ki [7]: 8.57 nM

SMILES: O=C(NCCCCCN1CCC(c2noc3ccsc23)CC1)c1ccc2ccccc2c1 [compound 816197]
- Ki [3]: 116 nM

SMILES: O=C(NCCCCN1CCN(c2c(Cl)sc3cc(F)ccc23)CC1)C(F)(F)F [compound 814854]
- Ki (read-out: D3K1): 35 nM

SMILES: COc1ccc(C(=O)NC/C=C\CN2CCN(c3csc4cc(C(F)(F)F)ccc34)CC2)cc1 [compound 827734]
- Ki (Table 2, read-out: D3K1): 37.3 nM

SMILES: O=C(NC/C=C\CN1CCN(c2csc3cc(C(F)(F)F)ccc23)CC1)C1CCCCC1 [compound 826339]
- Ki (read-out: D3K1): 24 nM

— patent US7550469B2, “Heterocyclic amide derivatives and their use as dopamine D3 receptor ligands” (Aventis Pharmaceuticals Inc., priority 2001, dated 2009)
